According to patent US7223718B2, “Enhanced glyphosate herbicidal concentrates” (Falcon Lab LLC, priority 2005, dated 2007):

Assay: Hygroscopicity: exposure to air on a balance for three days
Assay type: physicochemical
Conditions: exposed to air on a balance
From the text: A mechanical mixture of 10 gm. of dry, solid isopropylammonium glyphosate and 20 gm. of dry, solid ammonium pelargonate was made by thoroughly grinding and mixing the two solids to assure a homogeneous powder. The resulting 30 gm. was exposed to the air in a weighing dish on a balance to determine if the mixture was hygroscopic or dry. […] To this mixture was further added 3 gm. of powdered 85% potassium hydroxide and the solids again thoroughly mixed. This solid mixture contained the equivalent of 30% isopropylammonium glyphosate and 60% ammonium pelargonate, being a solid enhanced glyphosate herbicide concentrate.
A 50 gm. portion of a 53.8% glyphosate solution as the isopropylammonium salt (Monsanto Aquamaster®) was placed in a glass shallow evaporating dish. To this was added 10 gm. of 28-30% ammonium hydroxide and the solution thoroughly mixed by slowly tilting the dish. The dish was then exposed to air at ambient conditions for 2 weeks during which time the water evaporated off leaving a white crystalline solid weighing 38.9 gm. […] By the method it was prepared and the yield obtained it was determined to be the mixed salt ammonium, (isopropylammonium)glyphosate. The melting point was 200-205° C. (isopropyl ammonium glyphosate melts at 155-158° C.) The FT-IR spectrum in KBr is: […]

## ammonium, (isopropylammonium)glyphosate
  Hygroscopicity (weight change on exposure to air): non-hygroscopic
